TGI and GI50 data for eleven compounds are collected here from PubChem BioAssay (NCI).

Each structure is given as a SMILES string.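 Where inhibition never reached the appropriate level, the endpoint shown equals the highest concentration tested. Otherwise, values were interpolated linearly from a five-concentration, 48-hour dose response in 96-well plates. GI50 is the concentration that inhibits growth by half. TGI marks complete inhibition of growth.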

Some test systems named below: HL-60(TB) leukemia; KM20L2 colon; SK-MEL-28 melanoma; LOX IMVI melanoma; HCC-2998 colon; DMS 114 small cell lung; OVCAR-5 ovarian; T-47D breast; SR leukemia; PC-3 prostate; SN12C renal.
Holding throughout (test): NCI tumour cell line growth inhibition, 48 h

Take `Clc1cccc2c1OCC1C(c3ccccc3)=NN(c3ccccc3)C21` (stereo unspecified): the TGI in the experiment with HL-60(TB) leukemia, in the experiment on KM20L2 colon, with SK-MEL-28 melanoma, with LOX IMVI melanoma, with HCC-2998 colon and in the experiment on DMS 114 small cell lung was more than 100 µM in each case. Also, the TGI with OVCAR-5 ovarian is more than 100 µM.

With `CNc1nc2c(C)ccc3[nH]c(N(C)C)nc3c-2n1`, the TGI is 69.5 µM with HL-60(TB) leukemia; more than 100 µM with SK-MEL-28 melanoma; more than 100 µM in the experiment on LOX IMVI melanoma; more than 100 µM in the experiment on HCC-2998 colon; more than 100 µM in the experiment with T-47D breast; 97.9 µM in the experiment with SR leukemia. Moreover, the TGI in the experiment with PC-3 prostate, in the experiment on SN12C renal and in the experiment with OVCAR-5 ovarian was more than 100 µM each time.

`NC(=O)C1CCCN1C(=O)N(CCCl)N=O` (stereo unspecified): the TGI in the experiment on HL-60(TB) leukemia, in the experiment on SK-MEL-28 melanoma, with LOX IMVI melanoma, with HCC-2998 colon, in the experiment on T-47D breast and in the experiment on SR leukemia was more than 100 µM in each case. Further, the TGI with PC-3 prostate, in the experiment on SN12C renal and in the experiment on OVCAR-5 ovarian was more than 100 µM throughout.

As to `C[C@]12CCc3sc(-c4cccc(F)c4)nc3C1=CC[C@@H]1[C@@H]2CC[C@]2(C)C(=O)CC[C@@H]12`, the GI50 with HL-60(TB) leukemia is 2 µM; in the experiment with SK-MEL-28 melanoma, 1.53 µM; in the experiment on LOX IMVI melanoma it was 1.74 µM; with HCC-2998 colon, 3.19 µM; in the experiment on T-47D breast it was 2 µM; in the experiment with SR leukemia it was 2.62 µM. The results for the GI50 in the experiment on PC-3 prostate, with SN12C renal and in the experiment on OVCAR-5 ovarian were 3.08 µM, 3.01 µM and 2.68 µM, respectively. The TGI in the experiment with HL-60(TB) leukemia was 5.35 µM; in the experiment with SK-MEL-28 melanoma, 4.07 µM; in the experiment on LOX IMVI melanoma it was 3.36 µM; in the experiment with HCC-2998 colon, more than 100 µM; in the experiment with T-47D breast, 5.24 µM; in the experiment with SR leukemia, 10.5 µM. Further, the TGI is 14.2 µM in the experiment with PC-3 prostate, more than 100 µM in the experiment with SN12C renal and 18.5 µM in the experiment with OVCAR-5 ovarian.

Turning to `Cc1ccc(NC(=O)/C(=N\NC(N)=O)c2c(O)c3ccccc3[nH]c2=O)cc1`, the TGI in the experiment on HL-60(TB) leukemia, with SK-MEL-28 melanoma, with LOX IMVI melanoma, with HCC-2998 colon, with T-47D breast and with SR leukemia was more than 100 µM throughout. Moreover, the TGI with PC-3 prostate, in the experiment on SN12C renal and with OVCAR-5 ovarian was more than 100 µM throughout.

Consider `CSc1ccc2c(cc1=O)[C@@H](NC(=O)c1ccc([N+](=O)[O-])cc1)CCc1cc(O)c(O)c(O)c1-2`, for which the TGI in the experiment with HL-60(TB) leukemia is 57.5 µM; with SK-MEL-28 melanoma it was more than 100 µM; with LOX IMVI melanoma it was more than 100 µM; in the experiment on HCC-2998 colon it was more than 100 µM; in the experiment with T-47D breast, more than 100 µM; with SR leukemia it was more than 100 µM. Besides, the TGI in the experiment on PC-3 prostate was more than 100 µM; in the experiment with SN12C renal, 62.5 µM; in the experiment on OVCAR-5 ovarian it was more than 100 µM.

Turning to `O=[p+]1c2ccccc2[nH]c2ccccc21`, the TGI with HL-60(TB) leukemia, with SK-MEL-28 melanoma, in the experiment with LOX IMVI melanoma, in the experiment with HCC-2998 colon, in the experiment on T-47D breast and with SR leukemia was more than 100 µM throughout. Further, the TGI in the experiment with PC-3 prostate, in the experiment on SN12C renal and in the experiment with OVCAR-5 ovarian was more than 100 µM in each case.

Consider `Cc1ccc(C)c(COCCOCn2c(=O)[nH]c(=O)c3cc(Br)ccc32)c1`, for which the TGI in the experiment with HL-60(TB) leukemia, in the experiment on SK-MEL-28 melanoma, in the experiment with LOX IMVI melanoma, with HCC-2998 colon, in the experiment on T-47D breast and with SR leukemia was more than 100 µM each time. Further, the TGI in the experiment on PC-3 prostate, in the experiment with SN12C renal and in the experiment with OVCAR-5 ovarian was more than 100 µM in each case.

As to `Cc1cc(=O)c2ccccc2n1CCCCCCCCCCn1c(C)cc(=O)c2ccccc21`, the TGI with HL-60(TB) leukemia was 15.1 µM; with SK-MEL-28 melanoma, 35.1 µM; in the experiment with LOX IMVI melanoma, 17.8 µM; with HCC-2998 colon it was 24.1 µM; with T-47D breast it was more than 100 µM; in the experiment with SR leukemia it was 34 µM. Also, the values for the TGI in the experiment on PC-3 prostate, in the experiment on SN12C renal and in the experiment with OVCAR-5 ovarian were more than 100 µM, 43.3 µM and more than 100 µM, respectively.

Consider `Cc1cccc(C(=O)O)c1CC1NCCC2c3ccccc3NC12` (stereo unspecified), for which the TGI with HL-60(TB) leukemia, with SK-MEL-28 melanoma, with LOX IMVI melanoma, in the experiment with HCC-2998 colon, in the experiment with T-47D breast and with SR leukemia was more than 100 µM each time. Moreover, the TGI in the experiment on PC-3 prostate, in the experiment on SN12C renal and in the experiment on OVCAR-5 ovarian was more than 100 µM each time.

Turning to `O=S(=O)(/N=C(\NO)Nc1ccc(Cl)cc1)C1CC=C(c2ccon2)S1` (stereo unspecified), the TGI in the experiment on HL-60(TB) leukemia was 35.6 µM; with SK-MEL-28 melanoma, more than 100 µM; in the experiment on LOX IMVI melanoma it was more than 100 µM; with HCC-2998 colon, 50.4 µM; with T-47D breast, more than 100 µM; with SR leukemia it was 19.8 µM. In addition, the figures for the TGI in the experiment with PC-3 prostate, in the experiment with SN12C renal and with OVCAR-5 ovarian were more than 100 µM, 98.9 µM and more than 100 µM, respectively.
